Measurements taken from patent publication US20250115613A1, “DIARYL COMPOUND AS TUBULIN/SRC DUAL TARGET INHIBITOR” (Wuhan Humanwell Innovative Drug Research and Development …, priority 2022, published 2025).
In brackets after ≈: the same amount, converted by molar mass. Read-outs that look alike come from different tables or passages of the source.

Tests used:
HT 297.T cells = assay: Inhibition of HT 297.T cell proliferation; type: cell-based; conditions: Homo sapiens, 96 h, incubated 4 days
Method: (§1) Human cutaneous squamous cell carcinoma cell A-431 (ATCC, CRL-1555) and actinic keratosis patient-derived cell HT 297.T (ATCC, CRL-7782) proliferation assays were used to detect the inhibitory effect of small molecular compounds on cell proliferation.
(§2) A-431 cells and HT 297.T cells were cultured in DMEM medium containing 10% fetal bovine serum and grown at 37° C. in a 5% CO2 incubator. Cells on logarithmic phase were seeded into a 96-well cell culture plate at 1000 cells/well, 100 μL per well, and then cultured overnight at 37° C. in a 5% CO2 incubator. The next day, 100 μL of gradient-diluted 2× test compound solution was added to each well, with DMSO serving as a positive control, and 10 μM staurosporine (Aladdin, S102392) was set as a negative control group. After the addition of the compounds, the culture plate was incubated for another 4 days at 37° C. in a 5% CO2 incubator. After incubation, the Steady-Glo® luciferase assay system (Promega, G9243) was used according to the supplier's instructions to measure the fluorescence signal value on the Envision 2104 Multilabel Reader. The inhibition rate was calculated by the following formula, then the curve was plotted with the Log value of the inhibitor concentration as the X-axis and the inhibition rate as the Y-axis, and the IC50 was calculated using Graphpad 8.0.
(§3) Inhibition %=(positive control group signal−test well signal)/(positive control group signal−negative control group signal)*100

A-431 cells = assay: Inhibition of A-431 cell proliferation; type: cell-based; conditions: Homo sapiens, 96 h, incubated 4 days
Method: as §1, §2, §3

[1] = Pharmacokinetic test in mice; type: in vivo; conditions: mouse, plasma
Method: For the pharmacokinetic test in mice, 3 male ICR mice, 20 to 25 g, were used, fasted overnight, and administered by tail vein injection (1 mg/kg or 5 mg/kg). Blood was collected before the administration, and at 15 min, 30 min, 1 hour, 2 hours, 4 hours, 8 hours, and 24 hours after the administration. Another 3 mice were taken and administered by oral gavage (5 mg/kg), and blood was collected before the administration, and at 15 min, 30 min, 1 hour, 2 hours, 4 hours, 8 hours, and 24 hours after the administration. Blood samples were centrifuged at 6800 g at 2 to 8° C. for 6 min, and plasma was collected and stored at −80° C. The plasma at each time point was taken and added with an acetonitrile solution containing internal standard in 3 to 5 times the amount. The mixture was vortexed and mixed for 1 min, and centrifuged at 13,000 rpm at 4° C. for 10 min. The supernatant was collected, added with water in 3 times the amount, and mixed. An appropriate amount of the mixture was taken for LC-MS/MS analysis. The main pharmacokinetic parameters were analyzed using WinNonlin 7.0 software with non-compartmental model.

[2] = Human liver microsome stability test; type: in vitro ADME; conditions: human liver microsomes (Corning), NADPH, 37° C.
Method: The human liver microsome stability test was performed by incubating the compound and human liver microsomes in vitro. First, the compound to be tested was prepared as a 10 mM stock solution in DMSO solvent, and then the compound was diluted to 0.5 mM with acetonitrile. Human liver microsomes (Corning) were diluted with PBS into a microsome/buffer solution, and the solution was used to dilute 0.5 mM compound into a working solution, in which the concentration of the compound was 1.5 μM, and the concentration of human liver microsomes was 0.75 mg/mL. A deep-well plate was taken, 30 μL of the working solution was added per well, and then 15 μL of pre-heated 6 mM NADPH solution was added thereto to initiate a reaction, and the reaction was incubated at 37° C. At 0 min, 5 min, 15 min, 30 min, and 45 min of the incubation, 135 μL of acetonitrile was added to the corresponding wells to terminate the reaction. After the reaction was terminated with acetonitrile at the last time point of 45 min, the deep-well plate was vortexed and shaken for 10 min (600 rpm), and then centrifuged for 15 min. After centrifugation, the supernatant was collected, and added with purified water in a ratio of 1:1 to perform LC-MS/MS detection. A ratio of a peak area of compound to a peak area of internal standard at each time point was obtained, and the peak area ratios of the compound at 5 min, 15 min, 30 min, and 45 min were compared with the peak area ratio at 0 min to calculate the remaining percentage of the compound at each time point. T1/2 was calculated by using Graphpad 5 software.

tubulin monomer = assay: Inhibition test of tubulin monomer polymerization (Tubulin polymerization assay kit); type: biochemical; conditions: maximum fluorescence signal of polymerization curve; 5 μL of 12.5 μM compound solution; 37° C.; higher value = lower inhibitory efficiency
Method: Tubulin polymerization assay kit (cytoskeleton, Cat. #BK011P) was used to conduct the compound inhibition test of tubulin monomer polymerization.
Before the test, the 96-well plate (Corning Costar, Cat. #3686) supplied with the kit was first placed in a microplate reader (MD, SpectraMax M5) and heated to 37° C., maintained for 10 minutes. The 96-well plate was then removed, and 5 μL of 12.5 μM compound solution or blank solution was added thereto. The 96-well plate was then placed back into the microplate reader and incubated at 37° C. for 1 minute to heat the compound solution to 37° C. The 96-well plate was removed and 50 μL of reaction mixture prepared according to the supplier's instructions was quickly added to each well, completing the sample addition within 1 minute to avoid the formation of bubbles. The 96-well plate was then immediately placed back into the microplate reader, shaken for 5 seconds, and using the Kinetic mode, continuous detection was carried out at 37° C. for 30 to 60 minutes under the conditions of excitation light at 360 nm and emission light at 420 nm, with detection every 30 seconds. Taking the detection time as the X-axis and the fluorescence signal value as the Y-axis, the tubulin monomer polymerization curve was obtained. As shown in FIG. 1 and Table 1, the larger the Vmax value and the higher the maximum fluorescence signal value of the polymerization curve, the lower the inhibitory efficiency of the compound.

[3] = Thermodynamic solubility test; type: physicochemical; conditions: thermodynamic from solid
Method: Phosphate buffer saline (PBS) with a pH of 7.4, FeSSIF solution with a pH of 6.5, and FaSSGF solution with a pH of 1.6 were prepared. The compound was accurately weighed and added to prepared phosphate buffer saline with a pH of 7.4, FeSSIF solution with a pH of 6.5, and FaSSGF solution with a pH of 1.6 to prepare into a solution with a concentration of 4 mg/mL. The solution was shaken at a speed of 1000 rpm for 1 hour, and then incubated overnight at room temperature. The incubated solution was centrifuged at 12,000 rpm for 10 minutes to remove undissolved particles, and the supernatant was transferred to a new centrifuge tube. After the supernatant was appropriately diluted, an acetonitrile solution containing internal standard was added, and a standard curve prepared with the same matrix was used for quantification.

[4] = male, ICR, mice, oral gavage 5 mg/kg
[5] = male ICR mice, intravenous injection 5 mg/kg
[6] = male ICR mice, intravenous injection 1 mg/kg
[7] = FeSSIF solution, FeSSIF pH 6.5, incubated overnight at room temperature, read-out: Solubility FeSSIF (pH 6.5)
[8] = phosphate buffer saline (PBS), aqueous buffer, PBS pH 7.4, incubated overnight at room temperature, read-out: Solubility PBS (pH 7.4)

IC50 (A-431 cells) [nM] | AUC(0-t) [1, 5] [ng·h/mL] | clearance [1, 5] [mL/min/kg] | SMILES | further results
6.74 | 2520 | 33.2 | C[C@H]1COCCN1CCOc1ccc(-c2ccc(CC(=O)NCc3ccccc3)nc2)c(F)c1 [Compound I-24A, (S)—N-benzyl-2-(5-(2-fluoro-4-(2-(3-methylmorpholino)ethoxy)phenyl)pyridin-2-yl)acetamide] | IC50 (HT 297.T cells): 8.13 nM; AUC(0-t) [1, 4]: 1090 ng·h/mL; Cmax [1, 4]: 1190 ng/mL
9.22 | – | – | C[C@H]1COCCN1CCOc1ccc(-c2ccc(CC(=O)NCc3ccccc3F)nc2)c(F)c1 [Compound I-32, (S)-2-(5-(2-fluoro-4-(2-(3-methylmorpholino)ethoxy)phenyl)pyridin-2-yl)-N-(2-fluorobenzyl)acetamide] | –
14.3 | – | – | O=C(Cc1ccc(-c2ccc(OCCN3CCS(=O)(=O)CC3)cc2)cn1)NCc1ccccc1 [Compound I-3, N-benzyl-2-(5-(4-(2-(1,1-dioxidothiomorpholino)ethoxy)phenyl)pyridin-2-yl)acetamide] | –
– | 5250 | 15.8 | O=C(Cc1ccc(-c2ccc(OCCN3CCOCC3)cc2)cn1)NCc1ccccc1 [Control compound I, Tirbanibulin, reference compound] | –
22.3 | – | – | O=C(Cc1ccc(-c2ccc(OCCN3CC4(C3)CS(=O)(=O)C4)cc2)cn1)NCc1ccccc1 [Compound I-18, N-benzyl-2-(5-(4-(2-(2,2-dioxido-2-thia-6-azaspiro[3.3]heptan-6-yl)ethoxy)phenyl)pyridin-2-yl)acetamide] | –
9.12 | 852 | 97.2 | O=C(Cc1ccc(-c2ccc(OCCN3C[C@H]4COC[C@H]4C3)cc2Cl)cn1)NCc1ccccc1 [Compound I-30, N-benzyl-2-(5-(2-chloro-4-(2-((3aR,6aS)-tetrahydro-1H-furo[3,4-c]pyrrol-5(3H)-yl)ethoxy)phenyl)pyridin-2-yl)acetamide] | half-life at 1 μM [2]: 10.7 min; AUC(0-t) [1, 4]: 508 ng·h/mL; Cmax [1, 4]: 364 ng/mL
49.4 | – | – | Cc1cc(OCCN2C[C@H]3COC[C@H]3C2)ccc1-c1ccc(CC(=O)NCc2ccccc2F)nc1 [Compound I-33, N-(2-fluorobenzyl)-2-(5-(2-methyl-4-(2-((3aR,6aS)-tetrahydro-1H-furo[3,4-c]pyrrol-5(3H)-yl)ethoxy)phenyl)pyridin-2-yl)acetamide] | –
45.1 | – | – | Cc1cc(OCCN2C[C@H]3COC[C@H]3C2)cc(C)c1-c1ccc(CC(=O)NCc2ccccc2)nc1 [Compound I-29, N-benzyl-2-(5-(2,6-dimethyl-4-(2-((3aR,6aS)-tetrahydro-1H-furo[3,4-c]pyrrol-5(3H)-yl)ethoxy)phenyl)pyridin-2-yl)acetamide] | –
10.9 | – | – | C[C@@H]1COCCN1CCOc1ccc(-c2ccc(CC(=O)NCc3ccccc3F)nc2)c(F)c1 [Compound I-31, (R)-2-(5-(2-fluoro-4-(2-(3-methylmorpholino)ethoxy)phenyl)pyridin-2-yl)-N-(2-fluorobenzyl)acetamide] | –
11.6 | – | – | O=C(Cc1ccc(-c2ccc(OCCN3C[C@H]4COC[C@H]4C3)cc2F)cn1)NCc1ccccc1 [Compound I-1, N-benzyl-2-(5-(2-fluoro-4-(2-((3aR,6aS)-tetrahydro-1H-furo[3,4-c]pyrrol-5(3H)-yl)ethoxy)phenyl)pyridin-2-yl)acetamide] | AUC(0-t) [1, 6]: 299 ng·h/mL; clearance [1, 6]: 47.7 mL/min/kg
13.7 | – | – | O=C(Cc1ccc(-c2ccc(OCCNC3CN(C(=O)CC4CC4)C3)cc2)cn1)NCc1ccccc1 [Compound I-26, N-benzyl-2-(5-(4-(2-((1-(2-cyclopropylacetyl)azetidin-3-yl)amino)ethoxy)phenyl)pyridin-2-yl)acetamide] | half-life at 1 μM [2]: 42.8 min; Maximum signal value (tubulin monomer): 408; solubility [3, 7]: 480 µg/mL (≈ 962 µM); solubility [3, 8]: 22.4 µg/mL (≈ 45 µM)
14.8 | – | – | O=C(Cc1ccc(-c2ccc(OCCN3C[C@H]4COC[C@H]4C3)cc2Cl)cn1)NCc1ccccc1F [Compound I-34, 2-(5-(2-chloro-4-(2-((3aR,6aS)-tetrahydro-1H-furo[3,4-c]pyrrol-5(3H)-yl)ethoxy)phenyl)pyridin-2-yl)-N-(2-fluorobenzyl)acetamide] | –
3.1 | – | – | N#Cc1cc(OCCN2CCOCC2)ccc1-c1ccc(CC(=O)NCc2ccccc2)nc1 [Compound I-27, N-benzyl-2-(5-(2-cyano-4-(2-morpholinoethoxy)phenyl)pyridin-2-yl)acetamide] | Maximum signal value (tubulin monomer): 0; solubility [3, 7]: 833 µg/mL (≈ 1830 µM); solubility [3, 8]: 85.7 µg/mL (≈ 188 µM)
6.47 | 2780 | 30.7 | C[C@@H]1COCCN1CCOc1ccc(-c2ccc(CC(=O)NCc3ccccc3)nc2)c(F)c1 [Compound I-24B, (R)—N-benzyl-2-(5-(2-fluoro-4-(2-(3-methylmorpholino)ethoxy)phenyl)pyridin-2-yl)acetamide] | IC50 (HT 297.T cells): 8.51 nM; half-life at 1 μM [2]: 13.9 min; Maximum signal value (tubulin monomer): 266; solubility [3, 7]: 69.8 µg/mL (≈ 150 µM); solubility [3, 8]: 11.3 µg/mL (≈ 24.4 µM); AUC(0-t) [1, 4]: 1420 ng·h/mL; Cmax [1, 4]: 1230 ng/mL

SMILES | IC50 (A-431 cells) [nM] | AUC(0-t) [1, 5] [ng·h/mL] | clearance [1, 5] [mL/min/kg] | further results
O=C(Cc1ccc(-c2ccc(OCCN3CC4(COC4)C3)cc2F)cn1)NCc1ccccc1 [Compound I-4, 2-(5-(4-(2-(2-oxa-6-azaspiro[3.3]heptan-6-yl)ethoxy)-2-fluorophenyl)pyridin-2-yl)-N-benzylacetamide] | 8.67 | – | – | IC50 (HT 297.T cells): 21.9 nM; half-life at 1 μM [2]: 47.5 min
Cc1cc(OCCN2CC3(COC3)C2)ccc1-c1ccc(CC(=O)NCc2ccccc2)nc1 [Compound I-5, 2-(5-(4-(2-(2-oxa-6-azaspiro[3.3]heptan-6-yl)ethoxy)-2-methylphenyl)pyridin-2-yl)-N-benzylacetamide] | 16.3 | 2630 | 32.7 | –
